Test results reported in ChEMBL document CHEMBL3352153, “Diastereoselective synthesis of potent antimalarial cis-β-lactam agents through a [2 + 2] cycloaddition of chiral imines with a chiral ketene” (Eur J Med Chem, 2014).

These compounds were tested on Plasmodium falciparum (assay: Antimalarial activity against chloroquine-resistant Plasmodium falciparum K14 infected in human red blood cells after 48 hrs by [3H]hypoxanthine incorporation assay).
Type: functional, organism-based

SMILES | IC50 [µM]
Cc1ccc([C@@H]2[C@H](O[C@@H]3C[C@H](C)CC[C@H]3C(C)C)C(=O)N2[C@@H](C)c2ccccc2)cc1 | 35
COc1ccc([C@@H]2[C@H](O[C@@H]3C[C@H](C)CC[C@H]3C(C)C)C(=O)N2[C@@H](C)c2ccccc2)cc1 | 13
Cc1cccc([C@@H]2[C@H](O[C@@H]3C[C@H](C)CC[C@H]3C(C)C)C(=O)N2[C@@H](C)c2ccccc2)c1 | 42
CC(C)[C@@H]1CC[C@@H](C)C[C@H]1O[C@@H]1C(=O)N([C@@H](C)c2ccccc2)[C@@H]1/C=C/c1ccccc1 | > 50
COc1cccc([C@@H]2[C@H](O[C@@H]3C[C@H](C)CC[C@H]3C(C)C)C(=O)N2[C@@H](C)c2ccccc2)c1 | 8
CC(C)[C@@H]1CC[C@@H](C)C[C@H]1O[C@@H]1C(=O)N([C@@H](C)c2ccccc2)[C@@H]1c1ccccc1Cl | 36
C[C@@H](c1ccccc1)N1C(=O)[C@@H](Oc2ccccc2)[C@H]1c1ccc(Cl)cc1 | 42
CC(C)[C@@H]1CC[C@@H](C)C[C@H]1O[C@@H]1C(=O)N([C@@H](C)c2ccccc2)[C@@H]1c1ccc([N+](=O)[O-])cc1 | 27
CC(C)[C@@H]1CC[C@@H](C)C[C@H]1O[C@@H]1C(=O)N([C@@H](C)c2ccccc2)[C@@H]1c1ccc(Cl)cc1 | 33
COc1ccc([C@@H]2[C@H](O[C@@H]3C[C@H](C)CC[C@H]3C(C)C)C(=O)N2[C@@H](C)c2ccccc2)cc1OC | 8
C[C@@H](c1ccccc1)N1C(=O)[C@H](Oc2ccccc2)[C@@H]1c1ccc(Cl)cc1 | 42
COc1ccc(N2C(=O)[C@H](O[C@@H]3C[C@H](C)CC[C@H]3C(C)C)[C@@H]2c2ccc(Cl)cc2)cc1 | > 50
CC(C)[C@@H]1CC[C@@H](C)C[C@H]1O[C@@H]1C(=O)N([C@@H](C)c2ccccc2)[C@@H]1c1ccc(Br)cc1 | 11
CC(C)[C@@H]1CC[C@@H](C)C[C@H]1O[C@@H]1C(=O)N([C@@H](C)c2ccccc2)[C@@H]1c1ccccc1[N+](=O)[O-] | 21
COc1ccc(N2C(=O)[C@@H](O[C@@H]3C[C@H](C)CC[C@H]3C(C)C)[C@H]2c2ccc(Cl)cc2)cc1 | > 50
CC(C)[C@@H]1CC[C@@H](C)C[C@H]1O[C@@H]1C(=O)N([C@@H](C)c2ccccc2)[C@@H]1c1ccc2ccccc2c1 | 10
CC(C)[C@@H]1CC[C@@H](C)C[C@H]1O[C@@H]1C(=O)N([C@@H](C)c2ccccc2)[C@@H]1c1ccc(F)cc1 | 19
